Drawing on ChEMBL document CHEMBL1132126, “Synthesis of spermidine and norspermidine dimers as high affinity polyamine transport inhibitors” (Bioorg Med Chem Lett, 1999), this text covers Ki for 13 compounds.

Common to all, as to type: functional, cell-based
Test [1] has as its system T47D. Nature of the test: Inhibition of [3H]putrescine transport by the compound was evaluated in T-47D human breast cancer cells.
For test [2], the system named is T47D. Nature of the test: Inhibition of [3H]spermine transport by the compound was evaluated in T-47D human breast cancer cells.
The subject of test [3] is T47D. Nature of the test: Inhibition of [3H]spermidine transport by the compound was evaluated in T-47D human breast cancer cells.
For a further test, the system named is ZR-75-1. The experiment in a line: Inhibition of [3H]spermine transport by the compound was evaluated in ZR-75-1 human breast cancer cells.

SMILES strings stand for the structures.

`NCCCCN(CC#CCN(CCCN)CCCCN)CCCN`: the Ki in the test on T47D [1] is 1.9 µM; in the test on T47D [2] it was 27.7 µM; with T47D [3], 16.9 µM.

On to `NCCCN(CCCN)CCCCN(CCCN)CCCN`, for which the Ki in the test on T47D [1] came out at 0.52 µM; in the test with T47D [2] it was 6.2 µM; with ZR-75-1 it was 0.56 µM; with T47D [3], 2.4 µM.

Regarding `NCCCN(CCCN)Cc1ccc(CN(CCCN)CCCN)cc1`, the Ki with T47D [1] was determined as 0.16 µM; in the test with T47D [2] it was 1.5 µM; in the test on ZR-75-1, 0.7 µM; with T47D [3], 1.5 µM.

`NCCCN(CC#CCN(CCCN)CCCN)CCCN`: the values for the Ki with T47D [1], with T47D [2] and with T47D [3] were 2.6 µM, 12.8 µM and 25.6 µM, respectively.

As to `NCCCNCCCC(NCCCN)C(=O)NCCSSCCNC(=O)C(CCCNCCCN)NCCCN` (stereo not drawn), the Ki in the test on T47D [1] stood at 3.1 µM; in the test on T47D [2], 15.9 µM; in the test on ZR-75-1 it was 4 µM; in the test on T47D [3] it was 12.6 µM.

For `NCCCN(C/C=C/CN(CCCN)CCCN)CCCN`, the inhibition constant (Ki) stood at 0.27 µM in the test with T47D [1], 1.6 µM with T47D [2] and 2 µM with T47D [3].

As to `NCCCN(CCCN)C(=O)CCC(=O)N(CCCN)CCCN`, the Ki in the test on ZR-75-1 amounted to 1.7 µM. This counts as single-digit micromolar.

Compound `NCCCCN` [PUTRESCINE] gave a Ki in the test on T47D [1] of 7.4 µM.

Consider `NCCCCNCCCN` [SPERMIDINE], for which the Ki in the test with T47D [3] is 4.4 µM.

Consider `NCCCCN(CCCN)Cc1ccc(CN(CCCN)CCCCN)cc1`, for which the Ki turned out to be 0.28 µM with T47D [1], 2.9 µM with T47D [2], 0.24 µM in the test on ZR-75-1 and 2 µM in the test with T47D [3].

Take `NCCCCN(C/C=C/CN(CCCN)CCCCN)CCCN`: the Ki in the test on T47D [1] is 0.1 µM; in the test on T47D [2], 1.5 µM; in the test on T47D [3], 1.8 µM.

For the compound `NCCCCN(CCCN)CCCCN(CCCN)CCCCN`, the Ki in the test with T47D [1] was determined as 0.72 µM; in the test on T47D [2], 4.3 µM; in the test on T47D [3] it was 4.9 µM.

Regarding `NCCCNCCCCNCCCN` [SPERMINE], the Ki in the test on T47D [1] turned out to be 0.65 µM; in the test with T47D [2] it was 2.7 µM; with ZR-75-1 it was 0.2 µM; in the test with T47D [3] it was 0.92 µM.

A word on the Ki: it is the equilibrium dissociation constant of an inhibitor or competing ligand from its target. Low readings indicate tighter binding, high ones weaker binding.
